According to the supplement of paper PMC11061612:

Experiments:
Assay in all cases: Bliss excess, mean over the matrix (fraction); higher = more synergy
[1] = test system: MFE-296 (Endometrial Carcinoma)
Procedure, shortened: (§1)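 After 24 hours at 37°C and 5% CO2 in 1536-well plates, cells in DMEM/F12 or RPMI plus 10% FBS received two-drug dose matrices for 72 hours. Viability came from CellTiter-Glo 2.0 luminescence and was scaled as inhibition, anchored at 0 by vehicle wells and at 1 by blank wells. Combination Emax is taken as the second-highest inhibition in the matrix, and Bliss excess as the observed combination effect less EA + EB − EA·EB, with EA and EB the single-agent effects.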

[2] = test system: Calu-3 (Lung Adenocarcinoma)
Procedure, shortened: as §1

ES4 (Ewing's Sarcoma) = test system: ES4 (Ewing's Sarcoma)
Procedure, shortened: as §1

[3] = test system: OVCA420 (Ovarian Carcinoma)
Procedure, shortened: as §1

[4] = test system: NCI-H82 (Small Cell Lung Carcinoma)
Procedure, shortened: as §1

[5] = test system: CaR-1 (Colorectal Carcinoma)
Procedure, shortened: as §1

KELLY (Neuroblastoma) = test system: KELLY (Neuroblastoma)
Procedure, shortened: as §1

HOS (Osteosarcoma) = test system: HOS (Osteosarcoma)
Procedure, shortened: as §1

[6] = test system: RC-K8 (B-Cell Non-Hodgkin's Lymphoma)
Procedure, shortened: as §1

[7] = test system: Daoy (Other Solid Carcinomas)
Procedure, shortened: as §1

T98G (Glioblastoma) = test system: T98G (Glioblastoma)
Procedure, shortened: as §1

[8] = test system: DoTc2-4510 (Cervical Carcinoma)
Procedure, shortened: as §1

[9] = test system: CCRF-CEM (T-Lymphoblastic Leukemia)
Procedure, shortened: as §1

[10] = test system: KYSE-520 (Esophageal Squamous Cell Carcinoma)
Procedure, shortened: as §1

[11] = test system: EC-GI-10 (Esophageal Squamous Cell Carcinoma)
Procedure, shortened: as §1

[12] = test system: ME-1 (Acute Myeloid Leukemia)
Procedure, shortened: as §1

[13] = test system: TE-9 (Esophageal Squamous Cell Carcinoma)
Procedure, shortened: as §1

[14] = test system: LB831-BLC (Bladder Carcinoma)
Procedure, shortened: as §1

[15] = test system: HCC-78 (Lung Adenocarcinoma)
Procedure, shortened: as §1

[16] = test system: LS-180 (Colorectal Carcinoma)
Procedure, shortened: as §1

Compound | Bliss excess [1] | Bliss excess [2] | Bliss excess (ES4 (Ewing's Sarcoma)) | Bliss excess [3] | Bliss excess [4] | Bliss excess [5] | Bliss excess (KELLY (Neuroblastoma)) | Bliss excess (HOS (Osteosarcoma)) | Bliss excess [6] | Bliss excess [7] | Bliss excess (T98G (Glioblastoma)) | Bliss excess [8] | Bliss excess [9] | Bliss excess [10] | Bliss excess [11] | Bliss excess [12] | Bliss excess [13] | Bliss excess [14] | Bliss excess [15] | Bliss excess [16]
Cc1c2c(nn1C)CSCc1cc(n(C)n1)CSc1cc(c3ccccc3c1)OCCCc1c(C(=O)O)n(C)c3c-2c(Cl)ccc13 [AZD5991] + C=CCn1c(=O)c2cnc(Nc3ccc(N4CCN(C)CC4)cc3)nc2n1-c1cccc(C(C)(C)O)n1 [AZD1775] (first compound max 1 µM, partner max 1 µM) | -0.0025 | 0.0194 | 0.0578 | -0.0002 | -0.0532 | -0.0103 | 0.0322 | -0.0274 | -0.0294 | 0.0375 | -0.0198 | -0.0399 | -0.0011 | 0.0434 | 0.0389 | 0.041 | 0.0286 | -0.0044 | -0.0329 | 0.0495
Cc1c2c(nn1C)CSCc1cc(n(C)n1)CSc1cc(c3ccccc3c1)OCCCc1c(C(=O)O)n(C)c3c-2c(Cl)ccc13 [AZD5991] + CC1(C)CCC(CN2CCN(c3ccc(C(=O)NS(=O)(=O)c4ccc(NCC5CCOCC5)c([N+](=O)[O-])c4)c(Oc4cnc5[nH]ccc5c4)c3)CC2)=C(c2ccc(Cl)cc2)C1 [Venetoclax] (first compound max 1 µM, 7x7, partner max 1 µM) | -0.002 | 0.0015 | -0.0286 | -0.0045 | -0.036 | -0.0225 | 0.249 | 0.0413 | -0.0142 | 0.0496 | 0.0004 | 0.0024 | 0.0935 | -0.0306 | -0.0024 | 0.0654 | 0.0041 | -0.0229 | -0.0245 | 0.0019
Cc1c2c(nn1C)CSCc1cc(n(C)n1)CSc1cc(c3ccccc3c1)OCCCc1c(C(=O)O)n(C)c3c-2c(Cl)ccc13 [AZD5991] + CCN(CCO)CCCOc1ccc2c(Nc3cc(CC(=O)Nc4cccc(F)c4)[nH]n3)ncnc2c1 [AZD2811] (first compound max 1 µM, 7x7, partner max 1 µM) | 0.0533 | -0.0024 | 0.0003 | -0.0245 | 0.103 | -0.0004 | 0.0071 | 0.007 | 0.09 | 0.0678 | -0.0339 | 0.0509 | -0.0343 | -0.0272 | 0.156 | 0.0139 | -0.0235 | 0.0076 | 0.0209 | 0.0652
Cc1c2c(nn1C)CSCc1cc(n(C)n1)CSc1cc(c3ccccc3c1)OCCCc1c(C(=O)O)n(C)c3c-2c(Cl)ccc13 [AZD5991] + CN(C)CCCOc1ccc(-c2ccc3ncc4c(c3c2)n(C2CCOCC2)c(=O)n4C)cn1 [AZD0156] (first compound max 1 µM, 7x7, partner max 1 µM) | 0.0092 | 0.0066 | 0.0042 | -0.0333 | -0.0207 | -0.0271 | -0.0469 | -0.0026 | 0.0237 | 0.0145 | 0.008 | 0.0422 | 0.0467 | 0.0045 | 0.0487 | 0.0237 | -0.0529 | 0.0072 | -0.0059 | 0.0054
Cc1c2c(nn1C)CSCc1cc(n(C)n1)CSc1cc(c3ccccc3c1)OCCCc1c(C(=O)O)n(C)c3c-2c(Cl)ccc13 [AZD5991] + C[C@@H]1COCCN1C2=NC(=NC(=C2)C3(CC3)[S@](=N)(=O)C)C4=C5C=CNC5=NC=C4 [AZD6738] (first compound max 1 µM, 7x7, partner max 10 µM) | 0.0723 | 0.0119 | -0.0118 | 0.0076 | -0.0218 | -0.0134 | 0.0647 | 0.0356 | 0.0114 | 0.0268 | -0.0069 | -0.0327 | 0.0397 | 0.0162 | 0.061 | 0.0454 | -0.0039 | 0.0641 | 0.0028 | 0.0196
Cc1c2c(nn1C)CSCc1cc(n(C)n1)CSc1cc(c3ccccc3c1)OCCCc1c(C(=O)O)n(C)c3c-2c(Cl)ccc13 [AZD5991] + C[C@@H](Nc1cc(F)cc(F)c1)c1cc(C(=O)N(C)C)cc2c(=O)cc(N3CCOCC3)oc12 [AZD8186] (first compound max 1 µM, 7x7, partner max 3 µM) | 0.0197 | 0.0441 | -0.0286 | -0.0274 | -0.0121 | -0.0187 | 0.0259 | -0.0169 | -0.0418 | 0.0289 | -0.001 | 0.0486 | 0.0055 | -0.0258 | 0.0109 | -0.037 | -0.0274 | 0.0352 | -0.005 | -0.0189
Cc1c2c(nn1C)CSCc1cc(n(C)n1)CSc1cc(c3ccccc3c1)OCCCc1c(C(=O)O)n(C)c3c-2c(Cl)ccc13 [AZD5991] + Cn1cnc2c(F)c(Nc3ccc(Br)cc3Cl)c(C(=O)NOCCO)cc21 [Selumetinib] (first compound max 1 µM, 7x7, partner max 3 µM) | 0.0234 | -0.015 | -0.0173 | 0.0316 | -0.0406 | -0.03 | 0.0281 | -0.0261 | 0.0127 | 0.02 | 0.0157 | 0.0343 | 0.0383 | -0.0208 | 0.051 | 0.162 | -0.0097 | -0.018 | -0.0245 | 0.0454
NC1(C(=O)N[C@@H](CCO)c2ccc(Cl)cc2)CCN(c2ncnc3[nH]ccc23)CC1 [Capivasertib] + CC(=O)c1c(C)c2cnc(Nc3ccc(N4CCNCC4)cn3)nc2n(C2CCCC2)c1=O [Palbociclib] (first compound max 10 µM, 7x7, partner max 10 µM) | -0.0349 | 0.0775 | 0.074 | 0.0261 | -0.0229 | 0.0034 | 0.151 | 0.0023 | -0.0014 | 0.0306 | 0.0304 | -0.0983 | 0.0861 | -0.0342 | -0.0056 | -0.11 | -0.0271 | -0.0586 | -0.0134 | 0.0189
NC1(C(=O)N[C@@H](CCO)c2ccc(Cl)cc2)CCN(c2ncnc3[nH]ccc23)CC1 [Capivasertib] + CC(C)n1c(=O)n(C)c2cnc3cc(F)c(-c4ccc(OCCCN5CCCCC5)nc4)cc3c21 [AZD1390] (first compound max 10 µM, 7x7, partner max 0.3 µM) | -0.0695 | -0.0016 | -0.0585 | -0.0406 | 0.0005 | -0.0401 | -0.0322 | -0.0278 | -0.0149 | -0.0281 | -0.0652 | -0.0976 | -0.0847 | -0.0364 | -0.0418 | -0.0319 | -0.0431 | -0.0383 | -0.0434 | -0.0332
NC1(C(=O)N[C@@H](CCO)c2ccc(Cl)cc2)CCN(c2ncnc3[nH]ccc23)CC1 [Capivasertib] + CCN(CCO)CCCOc1ccc2c(Nc3cc(CC(=O)Nc4cccc(F)c4)[nH]n3)ncnc2c1 [AZD2811] (first compound max 10 µM, 7x7, partner max 1 µM) | -0.0593 | 0.0092 | 0.0317 | -0.017 | 0.0054 | -0.0236 | -0.0045 | -0.0107 | -0.0114 | 0.0146 | 0.0344 | -0.0749 | 0.0001 | -0.0495 | 0.06 | -0.055 | -0.0124 | -0.0179 | -0.015 | -0.0053
NC1(C(=O)N[C@@H](CCO)c2ccc(Cl)cc2)CCN(c2ncnc3[nH]ccc23)CC1 [Capivasertib] + COc1nnc2ccc(N3CCC(c4ccc(OCCN5CCN(C)C(=O)[C@H]5C)cc4)CC3)nn12 [AZD5153] (first compound max 10 µM, 7x7, partner max 1 µM) | 0.0901 | 0.0283 | -0.0175 | -0.0496 | -0.139 | 0.0378 | 0.0184 | 0.041 | -0.0101 | 0.0494 | 0.0908 | -0.0084 | 0.058 | -0.0509 | 0.0434 | -0.0161 | 0.0567 | 0.0335 | 0.0193 | -0.0055
NC1(C(=O)N[C@@H](CCO)c2ccc(Cl)cc2)CCN(c2ncnc3[nH]ccc23)CC1 [Capivasertib] + C[C@@H]1COCCN1C2=NC(=NC(=C2)C3(CC3)[S@](=N)(=O)C)C4=C5C=CNC5=NC=C4 [AZD6738] (first compound max 10 µM, 7x7, partner max 10 µM) | -0.0508 | -0.0381 | -0.0919 | -0.0468 | -0.0279 | -0.0194 | 0.0028 | -0.0463 | -0.0856 | -0.0462 | -0.0557 | -0.0192 | 0.0092 | -0.0371 | -0.0804 | -0.0086 | -0.0415 | -0.0161 | -0.0239 | -0.159
